Reference: US20230167073A1 (Teijin Pharma Limited, priority 2020, published 2023)

Target: T1, Human TRPC6 (Homo sapiens, UniProt Q9Y210)
T1 construct: expressed in transfected cells
T1 sequence (Q9Y210 1-931): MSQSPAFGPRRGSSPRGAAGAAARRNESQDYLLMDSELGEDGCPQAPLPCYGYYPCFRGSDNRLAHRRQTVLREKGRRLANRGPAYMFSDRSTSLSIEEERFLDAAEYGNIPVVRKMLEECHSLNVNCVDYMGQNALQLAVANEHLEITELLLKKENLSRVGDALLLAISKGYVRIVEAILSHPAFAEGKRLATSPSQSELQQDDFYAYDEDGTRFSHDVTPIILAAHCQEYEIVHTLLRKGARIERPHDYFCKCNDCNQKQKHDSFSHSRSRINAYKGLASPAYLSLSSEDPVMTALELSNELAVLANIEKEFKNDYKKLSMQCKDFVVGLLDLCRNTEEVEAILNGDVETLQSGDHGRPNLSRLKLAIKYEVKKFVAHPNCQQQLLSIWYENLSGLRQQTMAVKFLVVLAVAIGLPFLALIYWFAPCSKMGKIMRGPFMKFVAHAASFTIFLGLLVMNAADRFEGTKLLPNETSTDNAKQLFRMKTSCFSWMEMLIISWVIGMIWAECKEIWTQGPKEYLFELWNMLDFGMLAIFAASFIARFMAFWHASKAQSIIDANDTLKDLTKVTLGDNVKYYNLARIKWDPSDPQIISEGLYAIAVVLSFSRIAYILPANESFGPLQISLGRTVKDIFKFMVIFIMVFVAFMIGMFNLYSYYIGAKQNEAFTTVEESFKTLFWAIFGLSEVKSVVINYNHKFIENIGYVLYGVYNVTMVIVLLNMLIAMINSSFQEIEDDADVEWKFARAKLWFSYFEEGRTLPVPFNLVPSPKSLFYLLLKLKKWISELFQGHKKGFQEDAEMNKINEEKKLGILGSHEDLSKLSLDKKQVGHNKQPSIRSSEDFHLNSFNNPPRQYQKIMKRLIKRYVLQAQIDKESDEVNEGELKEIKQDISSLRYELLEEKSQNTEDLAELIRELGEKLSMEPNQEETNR
Assay: Evaluation of TRPC6 channel inhibitory activity (1), FLIPR Calcium 5 Assay Kit, OAG stimulation (Compound Nos. 1-1293)
Assay type: cell-based
Conditions: Human TRPC6 stably-expressing cells, OAG 30 μM, FLIPR Calcium 5 Assay Kit; read-out: Inhibitory activity (pIC50 class) (converted)
Method: Evaluation of TRPC6 Channel Inhibitory Activity (1) (Compound Nos. 1-1293)
In order to investigate TRPC6 channel inhibitory activity of the compounds, evaluation was conducted using FLIPR® Calcium 5 Assay Kit (Molecular Devices) in accordance with the following procedure. Human TRPC6 stably-expressing cells were seeded in a 384-well black clear bottom plate at a density of 5×10^3/well and cultured in an incubator at 37° C. 5% CO2 for 24 hours. Thereafter, 25 μL of a Non Wash Dye Solution, prepared using Component A, 20 mM HEPES-HBSS and 250 mM probenecid, all of which are included in the kit, was added to each well, and the plate was incubated for 30 minutes. A volume of 12.5 μL of a compound solution was added into each well while the fluorescence was measured with FLIPR tetra. After 20 minutes, 12.5 μL of a 1-oleoyl-2-acetyl glycerol (OAG) solution was added at a final concentration of 30 μM. The difference between the minimum fluorescence intensity before the addition of the compound and the maximum fluorescence intensity after the addition of OAG was defined as a signal. An inhibition rate was calculated, assuming the average signal of wells without the compound as the inhibition rate of 0% and the average signal of wells without the compound and OAG as the inhibition rate of 100%. The calculated inhibition rate was analyzed by a four-parameter logistic regression to quantify the inhibition rate in the logarithm of the inverse of the effective concentration which gives a 50% inhibition rate (pIC50). The intensity was expressed by the following symbols (+, ++, +++).

IC50	SMILES
0.01 to 1 µM	Cc1ccc(-c2cn(Cc3cc(C#N)ccc3-c3ccc(CCN)cn3)cn2)cc1 [compound 1146, 4-[5-(2-aminoethyl)pyridin-2-yl]-3-[[4-(4-methylphenyl)imidazol-1-yl]methyl]benzonitrile]
< 0.01 µM	N#Cc1ccc(-c2ncc(CN)cn2)c(C(=O)c2cnn(CC3CC3)c2)c1 [compound 1047, 4-[5-(aminomethyl)pyrimidin-2-yl]-3-[1-(cyclopropylmethyl)pyrazole-4-carbonyl]benzonitrile]
< 0.01 µM	Cc1nc(-c2cc(Oc3cc(C#N)ccc3-c3ncc(CN)cn3)n(C)n2)cs1 [compound 957, 4-[5-(aminomethyl)pyrimidin-2-yl]-3-[2-methyl-5-(2-methyl-1,3-thiazol-4-yl)pyrazol-3-yl]oxybenzonitrile]
< 0.01 µM	N#Cc1ccc(-c2ccc(CN)cn2)c(Oc2cnnc(C3CC3)c2)c1 [compound 695, 4-[5-(aminomethyl)pyridin-2-yl]-3-(6-cyclopropylpyridazin-4-yl)oxybenzonitrile]
< 0.01 µM	CN(C)c1cc(Oc2cc(F)ccc2-c2ccc(CCN)cn2)n(C)n1 [compound 1000, 5-[2-[5-(2-aminoethyl)pyridin-2-yl]-5-fluorophenoxy]-N,N,1-trimethylpyrazole-3-amine]
0.01 to 1 µM	CN(C)c1nnc(Oc2cc(C#N)ccc2-c2ncc(CCN)cn2)s1 [compound 727, 4-[5-(2-aminoethyl)pyrimidin-2-yl]-3-[[5-(dimethylamino)-1,3,4-thiadiazol-2-yl]oxy]benzonitrile]
> 1 µM	COCc1cncn1Cc1cc(C#N)ccc1-c1ccc(CCN)cc1 [compound 1116, 4-[4-(2-aminoethyl)phenyl]-3-[[5-(methoxymethyl)imidazol-1-yl]methyl]benzonitrile]
0.01 to 1 µM	CN(C)c1cc(Oc2cc(F)ccc2-c2ncc(CN)cn2)n(C)n1 [compound 997, 5-[2-[5-(aminomethyl)pyrimidin-2-yl]-5-fluorophenoxy]-N,N,1 trimethylpyrazole-3-amine]
> 1 µM	Cn1nc(C2CC2)cc1Oc1cc(C#N)ccc1-c1ccc(C(=O)N2CCNCC2)cn1 [compound 780, 3-(5-cyclopropyl-2-methylpyrazol-3-yl)oxy-4-[5-(piperazine-1-carbonyl)pyridin-2-yl]benzonitrile]
0.01 to 1 µM	Cc1nc(-c2ccccc2)cn1Cc1cc(C#N)ccc1-c1ccc(C(O)CN)cn1 (stereo not shown) [compound 1139, 4-[5-(2-amino-1-hydroxyethyl)pyridin-2-yl]-3-[(2-methyl-4-phenylimidazol-1-yl)methyl]benzonitrile]
0.01 to 1 µM	Cc1nc(-c2cccc(F)c2)cn1Cc1cc(C#N)ccc1-c1ncc([C@H](O)CN)cn1 [compound 1162, 4-[5-[(1S)-2-amino-1-hydroxyethyl]pyrimidin-2-yl]-3-[[4-(3-fluorophenyl)-2-methylimidazol-1-yl]methyl]benzonitrile]
> 1 µM	N#Cc1ccc(-c2ncc(CCN)cn2)c([S+]([O-])c2cnnc(-c3ccccc3)c2)c1 (stereo not shown) [compound 1275, 4-[5-(2-aminoethyl)pyrimidin-2-yl]-3-(6-phenylpyridazin-4-yl)sulfinylbenzonitrile]
0.01 to 1 µM	NCCc1cnc(-c2ccc(F)cc2C(=O)c2cnn(C3CCC3)c2)nc1 [compound 1108, [2-[5-(2-aminoethyl)pyrimidin-2-yl]-5-fluorophenyl]-(1-cyclobutylpyrazol-4-yl)methanone]
0.01 to 1 µM	N#Cc1ccc(-c2ncc(CN)cn2)c(Oc2cnnc(C3CC3)c2)c1 [compound 713, 4-[5-(aminomethyl)pyrimidin-2-yl]-3-(6-cyclopropylpyridazin-4-yl)oxybenzonitrile]

More lines, now with the values behind:

SMILES	IC50
Cc1nc(OCC2CCC2)cc(Oc2cc(C#N)ccc2-c2ccc(CCN)cc2)n1 [Compound 43, 4-[4-(2-aminoethyl)phenyl]-3-[6-(cyclobutylmethoxy)-2-methylpyrimidin-4-yl]oxybenzonitrile]	0.01 to 1 µM
Cc1cc(Oc2cc(C#N)ccc2-c2ncc(CCN)cn2)no1 [compound 677, 4-[5-(2-aminoethyl)pyrimidin-2-yl]-3-[(5-methyl-1,2-oxazol-3-yl)oxy]benzonitrile]	> 1 µM
Cc1cc(C(=O)c2cc(C#N)ccc2-c2ncc(CCN)cn2)cc(N2CCOCC2)n1 [Compound No. 1042, 4-[5-(2-Aminoethyl)pyrimidin-2-yl]-3-(2-methyl-6-morpholin-4-ylpyridine-4-carbonyl)benzonitrile]	< 0.01 µM
Cc1ccc(-c2cc(Oc3cc(C#N)ccc3-c3ccc(CCN)nc3)n(C)n2)nc1 [Compound 181, 4-[6-(2-aminoethyl)pyridin-3-yl]-3-[2-methyl-5-(5-methylpyridin-2-yl)pyrazol-3-yl]oxybenzonitrile]	0.01 to 1 µM
Cn1nc(-c2ccccn2)cc1Oc1cc(C#N)ccc1-c1cnc(CN)s1 [compound 608, 4-[2-(aminomethyl)-1,3-thiazol-5-yl]-3-(2-methyl-5-pyridin-2-ylpyrazol-3-yl)oxybenzonitrile]	> 1 µM
Cc1nc(Oc2cc(C#N)ccc2-c2ccc(CCN)cc2)cc(N2CCCCCC2)n1 [Compound 27, 4-[4-(2-aminoethyl)phenyl]-3-[6-(azepan-1-yl)-2-methylpyrimidin-4-yl]oxybenzonitrile]	0.01 to 1 µM
Cn1nc(C2CC2)cc1Oc1cc(C#N)ccc1-c1cccn(CCN)c1=O [compound 573, 4-[1-(2-aminoethyl)-2-oxopyridin-3-yl]-3-(5-cyclopropyl-2-methylpyrazol-3-yl)oxybenzonitrile]	0.01 to 1 µM
Cc1cc(Oc2cc(C#N)ccc2-c2ccc([C@H](O)CN)cn2)cc(-c2cnccn2)n1 [compound 693, 4-[5-[(1S)-2-amino-1-hydroxyethyl]pyridin-2-yl]-3-(2-methyl-6-pyrazin-2-ylpyridin-4-yl)oxybenzonitrile]	0.01 to 1 µM
CN(C)c1cc(Oc2cc(C#N)ccc2-c2ccc(CN)cn2)n(C)n1 [compound 623, 4-[5-(aminomethyl)pyridin-2-yl]-3-[5-(dimethylamino)-2-methylpyrazol-3-yl]oxybenzonitrile]	< 0.01 µM
Cc1nc(Oc2cc(C#N)ccc2-c2ncc(CN)cn2)cc(N2CCOCC2)n1 [compound 467, 4-[5-(aminomethyl)pyrimidin-2-yl]-3-(2-methyl-6-morpholin-4-ylpyrimidin-4-yl)oxybenzonitrile]	< 0.01 µM
Cn1nc(C2CC2)cc1Oc1cc(C#N)ccc1-c1ccc([C@@H](O)CN)cn1 [compound 374, 4-[5-[(1R)-2-amino-1-hydroxyethyl]pyridin-2-yl]-3-(5-cyclopropyl-2-methylpyrazol-3-yl)oxybenzonitrile]	< 0.01 µM
Cc1cc(Oc2cc(C#N)ccc2-c2ncc(CCN)cn2)cc(C)n1 [compound 438, 4-[5-(2-aminoethyl)pyrimidin-2-yl]-3-(2,6-dimethylpyridin-4-yl)oxybenzonitrile]	0.01 to 1 µM
Cc1nc(Oc2cc(C#N)ccc2-c2ccc(C3CCNC3)cc2)cc(N2CCOCC2)n1 (stereo not shown) [Compound 53, 3-(2-methyl-6-morpholin-4-ylpyrimidin-4-yl)oxy-4-(4-pyrrolidin-3-ylphenyl)benzonitrile]	0.01 to 1 µM
Cc1cc(Oc2cc(C#N)ccc2-c2ccc(OCCN)cn2)n(C)n1 [compound 349, 4-[5-(2-aminoethoxy)pyridin-2-yl]-3-(2,5-dimethylpyrazol-3-yl)oxybenzonitrile]	> 1 µM
